In ChEMBL document CHEMBL4818988, “Structure-Activity Relationships for the Marine Natural Product Sintokamides: Androgen Receptor N-Terminus Antagonists of Interest for Treatment of Metastatic Castration-Resistant Prostate Cancer” (J Nat Prod, 2021):
Values belong to the compound of their own block, whether it stands above or below them. Calls of active or inactive are those of the source. No cut-off for these calls is given here.

Key:
[1] = target: T1, Androgen receptor (Homo sapiens) (UniProt P10275); experiment: (§1) Antagonist activity at AR in human LNCaP cells transfected with PSA assessed as inhibition of R1881-induced PSA luciferase activity pretreated with compound followed by R1881 addition and measured after 48 hrs by luciferase assay; format: cell-based; details: filed as antagonist
T1 sequence (whole entry): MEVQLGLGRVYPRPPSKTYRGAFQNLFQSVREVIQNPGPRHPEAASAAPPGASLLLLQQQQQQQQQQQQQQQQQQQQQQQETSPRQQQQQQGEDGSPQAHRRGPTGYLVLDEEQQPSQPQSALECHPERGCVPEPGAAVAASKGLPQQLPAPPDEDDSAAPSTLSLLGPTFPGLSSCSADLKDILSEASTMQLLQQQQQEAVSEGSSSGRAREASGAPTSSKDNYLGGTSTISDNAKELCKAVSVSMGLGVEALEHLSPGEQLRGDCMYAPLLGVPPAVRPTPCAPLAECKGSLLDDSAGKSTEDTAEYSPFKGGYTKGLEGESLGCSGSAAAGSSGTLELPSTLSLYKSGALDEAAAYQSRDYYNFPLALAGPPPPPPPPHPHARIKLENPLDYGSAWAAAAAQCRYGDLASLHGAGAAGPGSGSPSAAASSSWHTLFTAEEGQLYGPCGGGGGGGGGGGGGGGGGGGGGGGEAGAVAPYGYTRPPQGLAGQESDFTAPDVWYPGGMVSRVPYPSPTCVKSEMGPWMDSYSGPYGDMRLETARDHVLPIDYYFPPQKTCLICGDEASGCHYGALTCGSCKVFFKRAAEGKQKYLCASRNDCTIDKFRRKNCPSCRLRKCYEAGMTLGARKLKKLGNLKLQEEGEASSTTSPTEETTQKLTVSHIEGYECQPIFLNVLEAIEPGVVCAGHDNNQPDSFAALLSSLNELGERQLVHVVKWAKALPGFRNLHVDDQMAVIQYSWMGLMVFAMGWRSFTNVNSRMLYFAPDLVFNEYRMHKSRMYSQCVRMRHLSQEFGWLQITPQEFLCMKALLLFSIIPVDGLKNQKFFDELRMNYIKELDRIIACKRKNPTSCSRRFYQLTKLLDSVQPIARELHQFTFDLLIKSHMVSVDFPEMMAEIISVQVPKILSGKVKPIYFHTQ

Androgen receptor = target: T2, Androgen receptor (Homo sapiens, UniProt P10275); experiment: as §1; format: cell-based
T2 sequence (P10275 whole entry): T1 sequence (whole entry)

PC-3 = experiment: Cytotoxicity against human PC3 cells assessed as reduction in cell viability after 72 hrs by Alamar blue assay; format: functional, cell-based; details: PC-3, 72 h
[2] = target: T1, Androgen receptor (Homo sapiens); experiment: Antagonist activity at AR in human LNCaP cells transfected with PSA assessed as inhibition of R1881-induced PSA luciferase activity pretreated with compound followed by R1881 addition at 5 uM and measured after 48 hrs by luciferase assay; format: cell-based
[3] = target: T1, Androgen receptor (Homo sapiens); experiment: Antagonist activity at AR in human LNCaP cells transfected with PSA assessed as inhibition of R1881-induced PSA luciferase activity pretreated with compound followed by R1881 addition at 10 uM and measured after 48 hrs by luciferase assay; format: cell-based
DU-145 = experiment: Cytotoxicity against human DU145 cells assessed as reduction in cell viability after 72 hrs by Alamar blue assay; format: functional, cell-based; details: DU-145, 72 h
[4] = target: T1, Androgen receptor (Homo sapiens); experiment: Antagonist activity at AR in human LNCaP cells transfected with PSA assessed as inhibition of R1881-induced PSA luciferase activity pretreated with compound followed by R1881 addition at 15 uM and measured after 48 hrs by luciferase assay; format: cell-based
[5] = target: T1, Androgen receptor (Homo sapiens); experiment: Antagonist activity at AR in human LNCaP cells transfected with PSA assessed as inhibition of R1881-induced PSA luciferase activity pretreated with compound followed by R1881 addition at 35 uM and measured after 48 hrs by luciferase assay; format: cell-based
[6] = target: T1, Androgen receptor (Homo sapiens); experiment: Antagonist activity at AR in human LNCaP cells transfected with PSA assessed as inhibition of R1881-induced PSA luciferase activity pretreated with compound followed by R1881 addition at 25 uM and measured after 48 hrs by luciferase assay; format: cell-based
[7] = target: T1, Androgen receptor (Homo sapiens); experiment: Antagonist activity at AR in human LNCaP cells transfected with PSA assessed as inhibition of R1881-induced PSA luciferase activity pretreated with compound followed by R1881 addition at 50 uM and measured after 48 hrs by luciferase assay; format: cell-based

SMILES: CCC(=O)N[C@H](CCC(Cl)(Cl)Cl)C(=O)N1C(=O)C=C(OC)[C@@H]1CCC(Cl)(Cl)Cl
Activity [1]: Dose-Dependent Effect

SMILES: CCC(=O)N[C@H](CCC(Cl)(Cl)Cl)C(=O)N1C(=O)C=C(OC)[C@H]1CCC(Cl)(Cl)Cl
Activity [1]: Dose-Dependent Effect

SMILES: CCC(=O)N[C@H](C[C@H](C)C(Cl)(Cl)Cl)C(=O)N1C(=O)C=C(OC)[C@@H]1C[C@H](C)C(Cl)Cl
IC50 (Androgen receptor): 6.5 µM | IC50 (PC-3): 29 µM | Activity ([2]; filed as antagonist): Active | Activity ([3]; filed as antagonist): Active | IC50 (DU-145): > 35 µM

Activity [2]: inactive | Activity [4]: inactive | Activity [5]: inactive
SMILES: CCC(=O)N[C@H](CC(C)C)C(=O)N1C(=O)C=C(OC)[C@@H]1CC(C)C

SMILES: CCC(=O)N[C@H](C[C@H](C)C(Cl)(Cl)Cl)C(=O)N1C(=O)C=C(OC)[C@@H]1C[C@H](C)C(Cl)(Cl)Cl
Activity ([2]; filed as antagonist): Active | Activity ([3]; filed as antagonist): Active

SMILES: CCC(=O)N[C@H](CCC(Cl)Cl)C(=O)N1C(=O)C=C(OC)[C@@H]1CCC(Cl)Cl
Activity [1]: Dose-Dependent Effect

SMILES: CCC(=O)N[C@H](CCCCl)C(=O)N1C(=O)C=C(OC)[C@@H]1CCCCl
Activity [6]: inactive | Activity [3]: inactive | Activity [7]: inactive

SMILES: CCC(=O)N[C@H](CCC(Cl)Cl)C(=O)N1C(=O)C=C(OC)[C@H]1CCC(Cl)Cl
Activity [1]: Dose-Dependent Effect
